Literature values in PubChem BioAssay AID1259410 (Chemical Carcinogenesis Research Information System (CCRIS), 2018).
Square brackets hold non-standard residues; d marks the D form. Peptide text beside a SMILES is read from it. sY = N[C@@H](Cc1ccc(OS(=O)(=O)O)cc1)C(=O)O; pGlu = O=C1CC[C@@H](C(=O)O)N1

Tested on: rodent tumor promotion studies, tumor incidence
Assay: CCRIS tumor promotion studies

SMILES: CSCC[C@H](NC(=O)[C@H](Cc1c[nH]c2ccccc12)NC(=O)CNC(=O)[C@@H](NC(=O)[C@H](Cc1ccc(OS(=O)(=O)O)cc1)NC(=O)[C@H](CC(=O)O)NC(=O)[C@H](CCC(N)=O)NC(=O)[C@@H]1CCC(=O)N1)[C@@H](C)O)C(=O)N[C@@H](CC(=O)O)C(=O)N[C@@H](Cc1ccccc1)C(N)=O ([pGlu]QD[sY]TGWMDF-NH2)
- outcome (Carcinogen: 7,12-DIMETHYLBENZ[A]ANTHRACENE, 57-97-6, Doses [Carcinogen]: 2-3 MG ONCE, Doses [Promoter]: 0, 5 UG/KG 2/D FOR 15 D POST CARCINOGEN TREATMENT (STUDY DURATION: 6 MO), Route [Carcinogen]: PANCREATIC IMPLANT, Route [Promoter]: SUBCUTANEOUS, Species: RAT, Strain/Sex: SPRAGUE-DAWLEY/MALE): pancreas: carcinoma
- outcome (Carcinogen: N-METHYL-N'-NITRO-N-NITROSOGUANIDINE, 70-25-7, Doses [Carcinogen]: 50 UG/ML IN DRINKING WATER FOR 20 WK, Doses [Promoter]: 0, 10 UG/KG IN OLIVE OIL 1/2 D FOR 20 WK BEGINNING 3 D AFTER CARCINOGEN DOSE (STUDY DURATION: 52 WK), Route [Carcinogen]: ORAL, Route [Promoter]: SUBCUTANEOUS, Species: RAT, Strain/Sex: WISTAR/MALE): glandular stomach: adenocarcinoma
- outcome (Carcinogen: N-METHYL-N'-NITRO-N-NITROSOGUANIDINE, 70-25-7, Doses [Carcinogen]: 50 UG/ML IN DRINKING WATER FOR 25 WK, Doses [Promoter]: 2 UG/KG IN OLIVE OIL 1/2 D FOR 27 WK ADMINISTERED POST CARCINOGEN DOSE (STUDY DURATION: 52 WK), Route [Carcinogen]: ORAL, Route [Promoter]: SUBCUTANEOUS, Species: RAT, Strain/Sex: WISTAR/MALE): stomach: adenocarcinoma

SMILES: O=P(O)(O)O
- outcome (Carcinogen: N-BUTYL-N-(4-HYDROXYBUTYL)NITROSAMINE, 3817-11-6, Doses [Carcinogen]: 0.05% IN DRINKING WATER FOR 4 WK, Doses [Promoter]: 0, 1.4% IN DIET FOR 32 WK BEGINNING POST CARCINOGEN TREATMENT (STUDY DURATION: 36 WK), Route [Carcinogen]: ORAL, Route [Promoter]: ORAL, Species: RAT, Strain/Sex: F344/MALE): urinary bladder: papilloma
- outcome (Carcinogen: N-ETHYL-N-HYDROXYETHYLNITROSAMINE, 13147-25-6, Doses [Carcinogen]: 1000 PPM IN DIET FOR 2 WK, Doses [Promoter]: 0, 10% IN DIET OF UNILATERALLY NEPHRECTOMIZED RATS BEGINNING POST CARCINOGEN TREATMENT AND CONTINUING FOR 18 WK (STUDY D, Route [Carcinogen]: ORAL, Route [Promoter]: ORAL, Species: RAT, Strain/Sex: WISTAR/MALE): kidney: renal cell tumor
- outcome (Carcinogen: N-ETHYL-N-HYDROXYETHYLNITROSAMINE, 13147-25-6, Doses [Carcinogen]: 1000 PPM IN DIET FOR 2 WK, Doses [Promoter]: 0, 50000 PPM IN DIET FOR 18 WK ADMINISTERED TO UNILATERALLY NEPHRECTOMIZED RATS (STUDY DURATION: 20 WK), Route [Carcinogen]: ORAL, Route [Promoter]: ORAL, Species: RAT, Strain/Sex: WISTAR/MALE): kidney: renal cell tumor

SMILES: C=C1/C(=C\C=C2/CCC[C@]3(C)[C@@H]([C@H](C)CCC(F)(F)C(C)(C)O)CC[C@@H]23)C[C@H](O)C[C@H]1O
- outcome (Carcinogen: 7,12-DIMETHYLBENZ[A]ANTHRACENE, 57-97-6, Doses [Carcinogen]: 50 NMOL IN 200 µL ACETONE 2/WK FOR 16 WK, Doses [Promoter]: 0, 0.05, 0.1 NMOL IN 200 µL ACETONE APPLIED 1 HR PRIOR TO CARCINOGEN DOSES 2/WK FOR 16 WK (STUDY DURATION: 16 WK), Doses [Promoter]: 0, 0.05, 0.1 NMOL IN 200 µL ACETONE APPLIED 1 HR PRIOR TO CARCINOGEN DOSES 2/WK FOR 16 WK (STUDY DURATION: 16 WK), Route [Carcinogen]: DERMAL, Route [Promoter]: DERMAL, Species: MOUSE, Strain/Sex: CD-1/FEMALE): skin: tumors

SMILES: CCOc1ccc(NC(C)=O)cc1
- outcome (Carcinogen: DIHYDROXY-DI-N-PROPYLNITROSAMINE, 53609-64-6, URACIL, 66-22-8, Carcinogen: DIHYDROXY-DI-N-PROPYLNITROSAMINE, 53609-64-6, URACIL, 66-22-8, Doses [Carcinogen]: 0.1% DHPN IN DRINKING WATER AND 3% URACIL IN THE DIET FOR 4 WK, Doses [Promoter]: 0, 2% IN DIET BEGINNING 1 WK POST CARCINOGEN TREATMENT AND CONTINUING FOR 35 WK (STUDY DURATION: 40 WK), Route [Carcinogen]: ORAL, ORAL, Route [Promoter]: ORAL, Species: RAT, Strain/Sex: F344/MALE): kidney: adenoma or adenocarcinoma; urinary bladder: papilloma
- outcome (Carcinogen: N-BUTYL-N-(4-HYDROXYBUTYL)NITROSAMINE, 3817-11-6, Doses [Carcinogen]: 0.05% IN DRINKING WATER FOR 4 WK, Doses [Promoter]: 0, 2% IN DIET FOR 8 WK AND 3 WK WITH A 4 WK INTERVAL BETWEEN TREATMENTS ADMINISTERED PRIOR TO CARCINOGEN TREATMENT (STUD, Route [Carcinogen]: ORAL, Route [Promoter]: ORAL, Species: MOUSE, Strain/Sex: NON/SHI/MALE): renal pelvis: carcinoma
- outcome (Carcinogen: N-BUTYL-N-(4-HYDROXYBUTYL)NITROSAMINE, Doses [Carcinogen]: 0.01, 0.05% IN DRINKING WATER FOR 4 WK, Doses [Promoter]: 2.5% IN DIET FOR 30 WK FOLLOWED BY CONTROL DIET FOR 6 WK, Route [Carcinogen]: ORAL, Route [Promoter]: ORAL, Species: RAT, Strain/Sex: WISTAR/MALE): urinary bladder: papilloma, carcinoma

SMILES: CC(=O)Nc1ccc2c(c1)Cc1ccccc1-2
- outcome (Carcinogen: DIETHYLNITROSAMINE, 55-18-5, Doses [Carcinogen]: 50 MG/KG ONCE 24 HR AFTER 2/3 PARTIAL HEPATECTOMY, Doses [Promoter]: 0, 0.02% IN DIET FOR 1 MO BEGINNING 1 WK POST CARCINOGEN DOSE (STUDY DURATION: 8 MO), Route [Carcinogen]: INTRAPERITONEAL, Route [Promoter]: ORAL, Species: RAT, Strain/Sex: WISTAR/MALE): liver: carcinoma
- outcome (Carcinogen: DIETHYLNITROSAMINE, 55-18-5, Doses [Carcinogen]: 200 MG/KG BW IN 0.9% SALINE ONCE, Doses [Promoter]: 0, 0.05 MMOL/KG BW IN POLYETHYLENE GLYCOL FOR 5 D BEGINNING 1 WK POST CARCINOGEN DOSE, 70% PARTIAL HEPATECTOMY PERFORMED, Route [Carcinogen]: INTRAPERITONEAL, Route [Promoter]: GAVAGE, Species: RAT, Strain/Sex: SPRAGUE-DAWLEY/MALE): liver: hepatocellular carcinoma

SMILES: CN(C)CCOc1ccc(/C(=C(/CCCl)c2ccccc2)c2ccccc2)cc1
- outcome (Carcinogen: DIETHYLNITROSAMINE, 55-18-5, Doses [Carcinogen]: 2.5 UG/G BW IN SALINE ONCE, Doses [Promoter]: 0, 0.5-1 MG IN PELLET IMPLANTED 1/MONTH FOR 30 WK BEGINNING 30 D POST CARCINOGEN TREATMENT (STUDY DURATION: 240 D), Route [Carcinogen]: INTRAPERITIONEAL, Route [Promoter]: SUBCUTANEOUS, Species: MOUSE, Strain/Sex: B6C3F1/FEMALE): liver: tumor

SMILES: O=C([O-])[C@H](O)[C@@H](O)[C@H](O)[C@H](O)CO.O=C([O-])[C@H](O)[C@@H](O)[C@H](O)[C@H](O)CO.[Cu+2]
- outcome (Carcinogen: N-nitrosodiethylamine (DEN) (55-18-5), N-methylnitrosourea (MNU) (684-93-5), 1,2-dimethylhydrazine (DMH) (540-73-8), N-b, Carcinogen: N-nitrosodiethylamine (DEN) (55-18-5), N-methylnitrosourea (MNU) (684-93-5), 1,2-dimethylhydrazine (DMH) (540-73-8), N-b, Doses [Carcinogen]: DEN (100 mg/kg at commencement), MNU (4 injections of 20 mg/kg in first 2 wks), DMH (4 injections of 40 mg/kg in second, Doses [Carcinogen]: DEN (100 mg/kg at commencement), MNU (4 injections of 20 mg/kg in first 2 wks), DMH (4 injections of 40 mg/kg in second, Doses [Promoter]: 0, 10, 300, 3000, 6000 ppm in diet immediately after completion of initiator treatment for 25 wk, Doses [Promoter]: 0, 10, 300, 3000, 6000 ppm in diet immediately after completion of initiator treatment for 25 wk, Route [Carcinogen]: Intraperitoneal (DEN and MNU), subcutaneous (DMH), oral (BBN and DHPN), Route [Carcinogen]: Intraperitoneal (DEN and MNU), subcutaneous (DMH), oral (BBN and DHPN), Route [Promoter]: Oral, Species: Rat, Strain/Sex: BrlHan:WIST Jcl (GALAS)/Male (9-12/group)): liver: gst-p-positive lesions (p<0.05 at 300 and 3000 ppm and p<0.01 at 6000 ppm

SMILES: Cn1c(N)nc2c3cccnc3ccc21
- outcome (Carcinogen: Diethyl nitrosamine (DEN), 55-18-5 and dimethylhydrazine (DMH), 30260-66-3, Carcinogen: Diethyl nitrosamine (DEN), 55-18-5 and dimethylhydrazine (DMH), 30260-66-3, Doses [Carcinogen]: DEN, 200 mg/kg once at -3 days, DMH, 40 mg/kg 4 injections between day 0 and wk 2, Doses [Promoter]: 0, 300 ppm in diet from week 2 to 29, study duration 29 wk, Doses [Promoter]: 0, 300 ppm in diet from week 2 to 29, study duration 29 wk, Route [Carcinogen]: Intraperitoneal (DEN) and subcutaneous (DMH), Route [Promoter]: Oral, Species: Rat, Strain/Sex: F344/Du Crj (20/group with 11 survivors)): liver: hepatocellular adenoma and carcinoma. colon adenoma and carcinoma. signif

SMILES: C#CCN(C)Cc1ccccc1
- outcome (Carcinogen: AZOXYMETHANE, 25843-45-2, Doses [Carcinogen]: 7.4 MG/KG BW IN 0.9% SALINE 1/WK FOR 10 WK, Doses [Promoter]: 0, 50 MG/KG BW 1/2 D FOR 35 WK (STUDY DURATION: 35 WK), Route [Carcinogen]: SUBCUTANEOUS, Route [Promoter]: SUBCUTANEOUS, Species: RAT, Strain/Sex: WISTAR/MALE): colon: tumor

SMILES: O=C1O[C@H]([C@H](O)CO)C(O)=C1O
- outcome (Carcinogen: N-BUTYL-N-(4-HYDROXYBUTYL)NITROSAMINE, 3817-11-6, Doses [Carcinogen]: 0.05% IN DRINKING WATER FOR 4 WK, Doses [Promoter]: 0, 5% IN DIET FOR 32 WK (STUDY DURATION: 36 WK), Route [Carcinogen]: ORAL, Route [Promoter]: ORAL, Species: RAT, Strain/Sex: F344/MALE): urinary bladder: papilloma, carcinoma
- outcome (Carcinogen: N-BUTYL-N-(4-HYDROXYBUTYL)NITROSAMINE, 3817-11-6, Doses [Carcinogen]: 0.05% IN DRINKING WATER FOR 4 WK, Doses [Promoter]: 0, 5% IN DIET FOR 32 WK BEGINNING POST CARCINOGEN (STUDY DURATION: 36 WK), Route [Carcinogen]: ORAL, Route [Promoter]: ORAL, Species: RAT, Strain/Sex: F344/MALE): bladder: papilloma, carcinoma
